Measured values taken from PubChem BioAssay (NCI).
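In this assay, cells in 96-well plates receive the compound at five concentrations for 48 hours. Endpoints are linearly interpolated between the surrounding concentrations. TGI: total growth inhibition.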

Assays:
Experiment in all cases: DTP human tumour cell line panel, 48 h
COLO 205 colon = system: COLO 205 colon
NCI-H226 lung = system: NCI-H226 lung
MOLT-4 leukemia = system: MOLT-4 leukemia
HOP-92 NSCLC = system: HOP-92 NSCLC
SK-MEL-28 melanoma = system: SK-MEL-28 melanoma
OVCAR-3 ovarian = system: OVCAR-3 ovarian
HOP-62 NSCLC = system: HOP-62 NSCLC
UACC-62 melanoma = system: UACC-62 melanoma
HT29 colon = system: HT29 colon
LOX IMVI melanoma = system: LOX IMVI melanoma
K-562 leukemia = system: K-562 leukemia
HCT-116 colon = system: HCT-116 colon
A498 renal = system: A498 renal

Structure (SMILES) | TGI (COLO 205 colon) [µM] | TGI (NCI-H226 lung) [µM] | TGI (MOLT-4 leukemia) [µM] | TGI (HOP-92 NSCLC) [µM] | TGI (SK-MEL-28 melanoma) [µM] | TGI (OVCAR-3 ovarian) [µM] | TGI (HOP-62 NSCLC) [µM] | TGI (UACC-62 melanoma) [µM] | TGI (HT29 colon) [µM] | TGI (LOX IMVI melanoma) [µM] | TGI (K-562 leukemia) [µM] | TGI (HCT-116 colon) [µM] | TGI (A498 renal) [µM]
COc1cccc(/C(CC(O)(C(F)(F)F)C(F)(F)F)=N\N(C)C)c1 | > 100 | > 100 | > 100 | > 100 | > 100 | > 100 | > 100 | > 100 | > 100 | > 100 | > 100 | > 100 | > 100
O=C1c2cccc3cccc(c23)C(=O)N1CCCNCCCCNCCCN1C(=O)c2cccc3cccc(c23)C1=O | 1.25 | 2.5 | – | 1.59 | 0.938 | 4.58 | 2.66 | 1.44 | 1.27 | 0.255 | 0.337 | 0.668 | 2.45
C[n+]1noc(/N=N\[O-])c1-c1cc(-c2c(/N=N\[O-])on[n+]2C)cc(-c2c(/N=N/[O-])on[n+]2C)c1 | > 100 | > 100 | > 100 | > 100 | > 100 | > 100 | > 100 | > 100 | > 100 | > 100 | > 100 | > 100 | > 100
CC1=NN(c2nc(N)nc(/C(C#N)=C/c3ccc([N+](=O)[O-])o3)n2)C(C)(C)C1 | 3.02 | 6.9 | 6.12 | 3.4 | 19.1 | 11.1 | 31.3 | 5.31 | 4.37 | 3.07 | 1.13 | 2.94 | 32.6
COC(=O)C1=C(OC(=O)/C(=C/c2ccc(Cl)cc2Cl)c2ccc(Cl)cc2Cl)C(C(=O)OC)[C@@]2(O)[C@@H](C(=O)OC)[C@H](C)C[C@@H]1[C@@H]2C(=O)OC (stereo partly drawn) | > 100 | > 100 | > 100 | > 100 | > 100 | > 100 | > 100 | > 100 | > 100 | > 100 | > 100 | > 100 | > 100
COc1ccc(/C(CCl)=C(\Nc2ccccc2)c2ccc(OC)c(OC)c2)cc1OC | > 100 | > 100 | > 100 | > 100 | > 100 | > 100 | > 100 | > 100 | > 100 | > 100 | > 100 | > 100 | > 100
COC(=O)C1CC(=O)CCC1c1ccccc1 (stereo not drawn) | > 100 | > 100 | > 100 | > 100 | > 100 | > 100 | > 100 | > 100 | > 100 | > 100 | > 100 | > 100 | > 100
COC(=O)c1ccccc1/C=C1/Cc2cccc(C)c2C1=O | > 100 | > 100 | > 100 | > 100 | > 100 | > 100 | > 100 | > 100 | > 100 | > 100 | > 100 | > 100 | > 100
